target: T1, human sEH enzyme (Homo sapiens, UniProt P34913); test: sEH Human Enzyme Assay (fluorescence based enzyme in vitro assay); format: biochemical; details: recombinant full length human sEH about 1 nM, fluorescence substrate S7 10 uM, pH7.0, 25° C.; read-out: IC50 [nM] for human sEH enzyme inhibition
T1 construct: His-tag (N, cleaved yes); made in house; host or cells: E. coli (pET100 vector)
T1 sequence (P34913 1-555): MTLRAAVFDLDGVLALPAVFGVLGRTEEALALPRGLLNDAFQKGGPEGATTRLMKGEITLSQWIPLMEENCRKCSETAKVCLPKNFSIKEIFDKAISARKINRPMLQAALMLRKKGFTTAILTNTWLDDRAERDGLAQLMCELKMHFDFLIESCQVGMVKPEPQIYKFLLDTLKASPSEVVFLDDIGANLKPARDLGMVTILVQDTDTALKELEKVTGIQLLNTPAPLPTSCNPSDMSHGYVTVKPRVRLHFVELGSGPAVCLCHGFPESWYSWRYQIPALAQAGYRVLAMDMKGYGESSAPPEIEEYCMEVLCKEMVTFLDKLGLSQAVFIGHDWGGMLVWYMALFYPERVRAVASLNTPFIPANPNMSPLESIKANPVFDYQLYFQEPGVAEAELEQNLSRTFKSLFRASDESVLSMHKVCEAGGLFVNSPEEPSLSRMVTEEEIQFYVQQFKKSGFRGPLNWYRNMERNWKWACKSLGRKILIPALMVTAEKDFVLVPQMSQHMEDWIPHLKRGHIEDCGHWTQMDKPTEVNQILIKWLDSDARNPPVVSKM
Text: Preparation of Recombinant sEH Human Enzyme
The DNA for expressing sEH was designed based on a […] sEH cDNA, modified to optimize for expression both in E. coli and insect cells. The designed DNA fragment encodes a protein sequence that is identical to full length human sEH, and the DNA was synthesized in vitro. The DNA was then subcloned into the pET100 vector that will generate a fusion protein with an N-terminal His-tag. The recombinant protein was expressed in E. coli. The sEH enzyme was affinity purified by a Ni^++ column. His-tag was removed by Enter Kinase (EK) digestion. The purified enzyme aliquots were frozen and held at −80° C. for later use.
Fluorescence Based Enzyme In Vitro Assay,
For each assay (100 ul), an aliquot of enzymes (about 1 nM final concentration) was incubated with a fluorescence substrate, S7 (10 uM final concentration), in sEH assay buffer (25 mM HEPES, pH7.0, 0.1 mg/ml BSA) in a 96-well plate. The kinetic reaction reading (Ex330/Em465) was conducted using a plate reader, Spectra max (Molecular Devices) at 25° C.

IC50 [nM] | SMILES
2 | Cc1noc(C2CC3CCC2N(C(=O)Nc2ccc(C(F)(F)F)cc2)C3)n1 (stereo not shown) [Example 2]
8 | Cn1cc(-c2noc(C3(C)CC4CCC3N(C(=O)NC3CC3c3ccccc3)C4)n2)c2ccccc21 (stereo not shown) [Example 20]
48 | CCc1noc(C2CC3CC2N(C(=O)NC2CC2c2ccccc2)C3)n1 (stereo not shown) [Example 17]
1 | O=C(Nc1ccc(Cl)cc1)N1CC2(c3ccccc3)CCC1C2 (stereo not shown) [Example 10]
14 | CCOc1noc(C2CC3CCC2N(C(=O)NC2CC2c2ccccc2)C3)n1 (stereo not shown) [Example 15]
2 | CCOc1noc(C2CC3CCC2N(C(=O)Nc2ccc(C(F)(F)F)cc2)C3)n1 (stereo not shown) [Example 7]

Continued, molecule first:

SMILES | IC50 [nM]
CN(C)c1noc(C2CC3CCC2N(C(=O)NC2CC2c2ccccc2)C3)n1 (stereo not shown) [Example 13] | 51
Cn1cc(-c2noc([C@@H]3C[C@H]4CC[C@H]3CN4C(=O)NC3CC3c3ccccc3)n2)c2ccccc21 (stereo partly shown) [Example 19] | 4
O=C(NC1CC1c1ccccc1)N1CC2CCC1C(c1nc(C(c3ccccc3)c3ccccc3)no1)C2 (stereo not shown) [Example 18] | 6
Cc1noc(C2(C)CC3CCC2N(C(=O)Nc2ccc(C(F)(F)F)cc2)C3)n1 (stereo not shown) [Example 3] | 2
O=C(Nc1ccc(C(F)(F)F)cc1)N1CC2(c3ccccc3)CCC1CC2 [Example 9] | 1
Cc1noc(C2(C)CC3CCC2N(C(=O)NC2CC2c2ccccc2)C3)n1 (stereo not shown) [Example 16] | 30
CN(C)c1noc(C2CC3CCC2N(C(=O)Nc2ccc(C(F)(F)F)cc2)C3)n1 (stereo not shown) [Example 6] | 1
CCc1noc(C2CC3CCC(C2)N3C(=O)Nc2ccc(C(F)(F)F)cc2)n1 (stereo not shown) [Example 5] | 2
O=C(NC1CC1c1ccccc1)N1CC2CCC1C(c1nc(C3CC3)no1)C2 (stereo not shown) [Example 14] | 18
CC(c1ccccc1)c1noc(C2CC3CCC2N(C(=O)Nc2ccc(C(F)(F)F)cc2)C3)n1 (stereo not shown) [Example 4] | 8
Cc1noc(C2CC3CC2N(C(=O)Nc2ccc(C(F)(F)F)cc2)C3)n1 (stereo not shown) [Example 1] | 7
O=C(Nc1ccc(C(F)(F)F)cc1)N1C2CCC1C(c1cccnc1)C2 (stereo not shown) [Example 12] | 41
O=C(Nc1ccc(C(F)(F)F)cc1)N1C2CCC1C(c1cccnc1)C2 (stereo not shown) [Example 11] | 11

— patent publication US20110003849A1, “SOLUBLE EPOXIDE HYDROLASE INHIBITORS, COMPOSITIONS CONTAINING SUCH COMPOUNDS AND METHODS OF TREATMENT” (priority 2008, published 2011)
